Assay results from US20100028879A1, “Modulators of HSD17b7 for treating acne or hyperseborrhea” (GALDERMA RESEARCH & DEVELOPMENT, priority 2006, published 2010).
Like-named read-outs stand apart in the source and are kept apart here.

Test system: HSD17B7 gene
Conditions: gonadectomized mice, short-term treatment
Experimental: The points Veh-24h-a and Veh-24h-b show the level of expression of HSD17B7 of gonadectomized mice untreated with DHT.
The expression of the genes was analyzed on an Affymetrix station (microfluidic model; hybridization oven; scanner; computer) following the protocols provided by the company. Briefly, the total RNA isolated from the tissues was transcribed to cDNA. From the double-stranded cDNA, a cRNA labeled with biotin was synthesized using T7 polymerase and a precursor NTP conjugated to biotin. The cRNAs were then fragmented to small sized fragments. […] The Affymetrix chip is hybridized with the biotinylated cRNA, rinsed and then fluorescence labeled using a fluorophore conjugated to streptavidin. After washings, the chip is scanned and the results are calculated using the MAS5 software provided by Affymetrix. An expression value is obtained for each gene as well as the indication of the significance of the value obtained.
B. Male mice were gonadectomized and were then treated with the vehicle or DHT. The preputial glands were removed for a period ranging up to 4 days (androgenic treatment alone—observation of a short-term kinetics). The RNA was isolated and the expression of the genes was analyzed by the Affymetrix technique using two different probe sets: 1417871_at (FIGS. 2A and 2C) and 1448865_at (FIGS. 2B and 2D).

C[C@]12CCC(=O)C[C@@H]1CC[C@@H]1[C@@H]2CC[C@]2(C)[C@@H](O)CC[C@@H]12 [DHT, Dihydrotestosterone]
mRNA for HSD17B7 in the mouse preputial gland (kinetic study 15 minutes to 96 hours, effect visible at 24 and 96 hours, FIGS. 2A, 2B): moderately induced | mRNA for HSD17B7 in the mouse preputial gland (kinetic study 1 hour to 24 hours, effect starting at 12 hours, well visible at 18 and 24 hours, FIGS. 2C, 2D): induced
